According to ChEMBL document CHEMBL6182893, “Discovery of non-electrophilic TRPA1 channel agonists with anti-nociceptive effects via rapid current desensitization” (Eur J Med Chem, 2025):
Calls of active or inactive are those of the source.

Legend:
[1] = target: T1, Transient receptor potential cation channel subfamily A member 1 (Homo sapiens, UniProt O75762); assay: Agonist activity at human TRPA1 expressed in HEK293T cells by whole cell patch clamp recordings; format: cell-based
[2] = target: Transient receptor potential cation channel subfamily A member 1 (Mus musculus, UniProt Q8BLA8); assay: Agonist activity at mouse TRPA1 expressed in HEK293T cells by whole cell patch clamp recordings; format: cell-based
[3] = Selectivity ratio of EC50 for agonist activity at mouse TRPA1 expressed in HEK293T cells to EC50 for agonist activity at human TRPA1 expressed in HEK293T cells; format: cell-based
[4] = Toxicity in wildtype C57BL/6J mouse assessed as irritation at 1 %, SC administered via hind paw and measured within 45 mins; settings: in vivo, 0.75 h
[5] = Toxicity in wildtype C57BL/6J mouse assessed as irritation at 0.3 %, SC administered via hind paw and measured within 45 mins; settings: in vivo, 0.75 h
[6] = tested on: Mus musculus; assay: Antinociceptive activity in TRPA1 knock-out mouse model of thermal pain assessed as increase in paw lick latency at 20 mg/kg, po preadministered for 30 mins followed by exposure to 55 degreeC and measured up to 4 hrs by hot plate test; format: functional, organism-based
[7] = target: T1, Transient receptor potential cation channel subfamily A member 1; assay: Irreversible binding affinity to TRPA1 (unknown origin); settings: filed as agonist
[8] = target: Transient receptor potential cation channel subfamily A member 1 (Mus musculus) (UniProt Q8BLA8); assay: Desensitization of mouse TRPA1 expressed in HEK293T cells assessed as time constant (tau) at 200 uM in presence of Ca2+ containing solution by whole cell patch clamp recording; format: cell-based; settings: filed as agonist
[9] = target: T1, Transient receptor potential cation channel subfamily A member 1; assay: Agonist activity at human TRPA1 expressed in HEK293T cells assessed as increase in channel opening by measuring single channel conductance at 30 uM in presence of A-967079 by single-channel recordings; format: cell-based; settings: filed as agonist
[10] = target: T1, Transient receptor potential cation channel subfamily A member 1; assay: Agonist activity at human TRPA1 expressed in HEK293T cells assessed as increase in channel opening by measuring open probability at 30 uM in presence of A-967079 by single-channel recordings; format: cell-based; settings: filed as agonist
[11] = tested on: Mus musculus; assay: Antinociceptive activity in acetic-acid induced wildtype male C57BL/6J mouse model of visceral pain assessed as reduction in abdominal writhing at 20 mg/kg, po preadministered for 30 mins followed by acetic acid challenge and measured after 15 mins; format: functional, organism-based
[12] = tested on: Mus musculus; assay: Antinociceptive activity in acetic-acid induced TRPA1 knock-out mouse model of visceral pain assessed as reduction in abdominal writhing at 20 mg/kg, po preadministered for 30 mins followed by acetic acid challenge and measured after 15 mins; format: functional, organism-based
[13] = tested on: Mus musculus; assay: Antinociceptive activity in wildtype female C57BL/6J mouse model of thermal pain assessed as paw withdrawal latency time at 20 mg/kg, po preadministered for 30 mins followed by exposure to 55 degreeC and measured immediately by hot plate test (reference value: 16.65 +/- 1.02 sec); format: functional; settings: 0.5 h
[14] = tested on: Mus musculus; assay: Antinociceptive activity in wildtype female C57BL/6J mouse model of thermal pain assessed as paw withdrawal latency time at 20 mg/kg, po preadministered for 30 mins followed by exposure to 55 degreeC and measured after 30 mins by hot plate test (reference value: 11.83 +/- 1.25 sec); format: functional; settings: time 60 min, 1 h
[15] = tested on: Mus musculus; assay: Antinociceptive activity in wildtype female C57BL/6J mouse model of thermal pain assessed as paw withdrawal latency time at 20 mg/kg, po preadministered for 30 mins followed by exposure to 55 degreeC and measured after 60 mins by hot plate test (reference value: 13.65 +/- 0.69 sec); format: functional; settings: time 90 min, 1.5 h
[16] = tested on: Mus musculus; assay: Antinociceptive activity in wildtype female C57BL/6J mouse model of thermal pain assessed as paw withdrawal latency time at 20 mg/kg, po preadministered for 30 mins followed by exposure to 55 degreeC and measured after 120 mins by hot plate test (reference value: 15.65 +/- 1.22 sec); format: functional; settings: time 150 min
[17] = tested on: Mus musculus; assay: Antinociceptive activity in wildtype female C57BL/6J mouse model of thermal pain assessed as paw withdrawal latency time at 20 mg/kg, po preadministered for 30 mins followed by exposure to 55 degreeC and measured after 4 hrs by hot plate test (reference value: 17.41 +/- 1.18 sec); format: functional
[18] = tested on: Mus musculus; assay: Effect on mechanical allodynia in male C57BL/6J mouse assessed as paw withdrawal mechanical threshold at 20 mg/kg, po administered for 30 mins (reference value: 1.77 +/- 0.21 g); format: functional; settings: 0.5 h
[19] = tested on: Mus musculus; assay: Antinociceptive activity in CFA-induced male C57BL/6J mouse model of inflammatory pain assessed as paw withdrawal mechanical threshold at 20 mg/kg, po challenged with CFA for 24 hrs followed by compound administration for 30 mins and measured immediately (reference value: 0.47 +/ 0.14 g); format: functional; settings: 0.5 h
[20] = tested on: Mus musculus; assay: Antinociceptive activity in CFA-induced male C57BL/6J mouse model of inflammatory pain assessed as paw withdrawal mechanical threshold at 20 mg/kg, po challenged with CFA for 24 hrs followed by compound administration for 30 mins and measured after 0.5 hrs (reference value: 0.39 +/- 0.05 g); format: functional; settings: time 1 hrs
[21] = tested on: Mus musculus; assay: Antinociceptive activity in CFA-induced male C57BL/6J mouse model of inflammatory pain assessed as paw withdrawal mechanical threshold at 20 mg/kg, po challenged with CFA for 24 hrs followed by compound administration for 30 mins and measured after 1 hrs (reference value: 0.22 +/- 0.03 g); format: functional; settings: time 1.5 hrs
[22] = tested on: Mus musculus; assay: Antinociceptive activity in CFA-induced male C57BL/6J mouse model of inflammatory pain assessed as paw withdrawal mechanical threshold at 20 mg/kg, po challenged with CFA for 24 hrs followed by compound administration for 30 mins and measured after 2 hrs (reference value: 0.55 +/- 0.13 g); format: functional
[23] = tested on: Mus musculus; assay: Antinociceptive activity in CFA-induced male C57BL/6J mouse model of inflammatory pain assessed as paw withdrawal mechanical threshold at 20 mg/kg, po challenged with CFA for 24 hrs followed by compound administration for 30 mins and measured after 4 hrs (reference value: 0.47 +/- 0.10 g); format: functional

T1 sequence (O75762 whole entry): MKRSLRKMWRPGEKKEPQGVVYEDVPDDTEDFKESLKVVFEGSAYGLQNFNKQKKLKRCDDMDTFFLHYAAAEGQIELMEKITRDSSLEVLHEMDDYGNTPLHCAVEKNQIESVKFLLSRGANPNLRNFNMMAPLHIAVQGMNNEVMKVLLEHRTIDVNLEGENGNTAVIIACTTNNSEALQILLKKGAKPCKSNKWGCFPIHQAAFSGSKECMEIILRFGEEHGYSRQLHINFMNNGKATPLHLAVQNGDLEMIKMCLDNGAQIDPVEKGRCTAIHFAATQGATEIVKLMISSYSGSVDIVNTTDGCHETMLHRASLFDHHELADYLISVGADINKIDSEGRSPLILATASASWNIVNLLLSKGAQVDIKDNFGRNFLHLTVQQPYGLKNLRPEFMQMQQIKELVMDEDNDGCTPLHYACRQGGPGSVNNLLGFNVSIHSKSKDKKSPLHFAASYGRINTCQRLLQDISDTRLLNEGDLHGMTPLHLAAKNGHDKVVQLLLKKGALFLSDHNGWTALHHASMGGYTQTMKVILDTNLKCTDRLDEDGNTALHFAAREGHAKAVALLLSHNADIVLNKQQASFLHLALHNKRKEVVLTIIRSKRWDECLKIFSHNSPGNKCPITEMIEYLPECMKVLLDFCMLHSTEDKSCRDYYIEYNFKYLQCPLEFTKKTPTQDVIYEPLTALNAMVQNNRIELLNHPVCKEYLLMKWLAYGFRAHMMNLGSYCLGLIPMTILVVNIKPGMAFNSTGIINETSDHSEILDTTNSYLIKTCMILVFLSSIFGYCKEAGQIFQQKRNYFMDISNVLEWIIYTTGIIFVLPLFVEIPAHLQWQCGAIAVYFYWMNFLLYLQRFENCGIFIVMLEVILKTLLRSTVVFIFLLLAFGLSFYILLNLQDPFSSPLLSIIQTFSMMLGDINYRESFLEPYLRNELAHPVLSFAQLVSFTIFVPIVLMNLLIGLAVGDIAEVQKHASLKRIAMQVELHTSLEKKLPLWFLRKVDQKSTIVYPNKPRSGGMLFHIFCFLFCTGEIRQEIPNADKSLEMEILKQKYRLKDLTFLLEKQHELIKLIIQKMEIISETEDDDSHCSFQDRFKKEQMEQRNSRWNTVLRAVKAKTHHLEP
Transient receptor potential cation channel subfamily A member 1 (Mus musculus, UniProt Q8BLA8), sequence (Q8BLA8 whole entry): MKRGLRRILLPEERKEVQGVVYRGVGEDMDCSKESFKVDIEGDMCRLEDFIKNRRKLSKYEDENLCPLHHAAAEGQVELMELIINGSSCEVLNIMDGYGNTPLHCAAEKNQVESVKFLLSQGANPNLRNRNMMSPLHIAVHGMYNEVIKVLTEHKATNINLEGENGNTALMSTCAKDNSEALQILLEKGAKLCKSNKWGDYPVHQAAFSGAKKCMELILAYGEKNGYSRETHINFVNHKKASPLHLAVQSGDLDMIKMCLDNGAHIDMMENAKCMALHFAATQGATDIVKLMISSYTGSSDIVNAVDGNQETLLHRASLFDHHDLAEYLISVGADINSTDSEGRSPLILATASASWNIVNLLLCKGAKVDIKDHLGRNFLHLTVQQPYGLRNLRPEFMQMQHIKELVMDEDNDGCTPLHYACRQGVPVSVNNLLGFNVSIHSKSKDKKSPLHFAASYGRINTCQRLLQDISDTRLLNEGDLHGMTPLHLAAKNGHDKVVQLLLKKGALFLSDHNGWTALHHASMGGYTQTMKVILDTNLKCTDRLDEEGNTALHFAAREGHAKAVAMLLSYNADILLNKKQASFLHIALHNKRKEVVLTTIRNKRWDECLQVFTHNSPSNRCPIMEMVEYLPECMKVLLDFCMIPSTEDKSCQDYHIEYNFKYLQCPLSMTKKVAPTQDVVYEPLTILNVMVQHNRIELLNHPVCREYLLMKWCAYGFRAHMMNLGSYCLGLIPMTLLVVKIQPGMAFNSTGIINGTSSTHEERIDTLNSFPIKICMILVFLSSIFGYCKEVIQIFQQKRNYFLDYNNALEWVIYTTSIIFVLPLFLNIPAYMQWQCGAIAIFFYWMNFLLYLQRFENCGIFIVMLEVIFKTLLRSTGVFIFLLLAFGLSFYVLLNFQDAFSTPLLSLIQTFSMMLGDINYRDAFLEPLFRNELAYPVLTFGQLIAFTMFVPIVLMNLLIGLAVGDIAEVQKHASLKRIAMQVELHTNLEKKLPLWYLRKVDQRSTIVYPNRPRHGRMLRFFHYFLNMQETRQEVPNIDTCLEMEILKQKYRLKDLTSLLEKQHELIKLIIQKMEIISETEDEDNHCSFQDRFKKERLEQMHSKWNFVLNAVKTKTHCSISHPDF
Transient receptor potential cation channel subfamily A member 1 (Mus musculus), sequence (Q8BLA8 whole entry): as above

COCCCN(C(=O)CCl)c1nc(-c2ccc(OC)cc2)cs1
EC50 [1]: 0.00648 µM | EC50 [2]: 5.26 µM | Ratio EC50 [3]: 1000 | Activity [4]: Toxic | Activity [5]: Non-toxic | Activity [6]: Active

CCCCCNc1nc(-c2ccc(O)cc2)cs1
Activity [7]: Active

COCCCNc1cc(-c2ccc(C)cc2)cs1
Activity [7]: Active

S=C=NCc1ccccc1
TIME [8]: 0.0179 h

C=CCN=C=S [ALLYL ISOTHIOCYANATE]
Activity [9]: 102 pS | Activity [10]: 0.15 | Activity [4]: Toxic

CC(C)Cc1ccc(C(C)C(=O)O)cc1 (stereo not given) [IBUPROFEN]
Activity [11]: Active | Activity [12]: Active | Time [13]: 15.72 s | Time [14]: 20.73 s | Time [15]: 31.26 s | Time [16]: 15.46 s | Time [17]: 14.03 s | Activity [18]: 1.84 g | Activity [19]: 0.22 g | Activity [20]: 1.2 g | Activity [21]: 1.32 g | Activity [22]: 0.69 g | Activity [23]: 0.42 g
